Numbers after ± are expanded uncertainties.
Conditions: Crystal; visual observation

Triple point temperature: 407 ± 1 K
Compound: CCOc1ccc(NC(C)=O)cc1 [N-(4-ethoxyphenyl)ethanamide]

From the NIST ThermoML archive (doi:10.1021/je900614f)
